PMC6005348, “Betahistine Treatment in a Cat Model of Vestibular Pathology: Pharmacokinetic and Pharmacodynamic Approaches” (Frontiers in Neurology, 2018)

Test system: histidine decarboxylase (HDC)
Experiment: Number of HDC immunoreactive neurons in the tuberomammillary nuclei (immunohistochemistry)
Assay type: in vivo, cat
Protocol: […] animals were used for the immunohistochemical study to label the histamine synthesizing enzyme: the HDC. This study was performed on the same four groups of cats used for the behavioral investigation (cats 10–22). These lesioned animals (left UVN) were all killed 40 days after vestibular lesion. A supplementary group of intact animals (n = 4: cats 23–26) was used as a negative control group without vestibular lesion.
Cats were deeply anesthetized with ketamine dihydrochloride (20 mg/kg, i.m., Rhône Poulenc Mérieux) and perfused under isoflurane intubation (2%), through the ascending aorta, with 1 L of normal saline solution (0.9%) containing 0.1% heparine, and thereafter with 2 L of ice-cold 0.1 M phosphate buffer (PB, pH 7.4) including 4% paraformaldehyde and 0.2% picric acid.
After removal from the skull, the brain was cut into several blocks and post-fixed overnight at 4°C in the same solution. The blocks were then rinsed and cryoprotected by increasing concentrations (10, 20, and 30%) of sucrose solution in 0.1 M PB for 72 h at 4°C. Blocks containing the TMN were rapidly frozen with CO2 gas, and coronal sections 20 μm thick were cut in a cryostat (Leica, Rueil-Malmaison, France).
Free-floating sections were first incubated three times for 5 min in PBS (phosphate buffer saline 0.1 M), then for 1 h in 10% BSA, and 0.25% Triton X-100. Thereafter, sections were incubated under continuous agitation 24 h at 4°C with a Guinea pig polyclonal anti-HDC antiserum (1:1,000 in PBS containing 2% BSA and 0.25% Triton; Fisher scientific). After several rinses (3 × 5 min in PBS with 2% BSA and 3 × 5 min in PBS with 5% BSA) sections were incubated for 1 h, respectively, in biotinylated rabbit anti-guinea pig IgG (1:200 in PBS containing 2% BSA; from Vector Laboratories, Burlingame, CA). […]
The tuberomammillary nuclei (TMN) of the posterior hypothalamus, the sole structure in the brain containing histaminergic neurons, were identified using Berman's stereotaxic atlas ([38]). […] Serial sections in the TMN of each animal were analyzed, five sections at each of the five rostrocaudal levels examined (A12, A11, A10.2, A9.5, and A8.3) being quantified. The number of HDC immunoreactive neurons was quantified by means of a computer-assisted image analysis (DMLB microscope: Leica Microsystems, Wetzlar, Germany) equipped with a DXM 1200 Nikon high-resolution digital camera (1,024 × 1,024 pixels; Nikon, Tokyo, Japan) interfaced to a PC computer employing image software for capturing and processing the images (Lucia G, Nikon, Champigny-sur-Marne, France). Quantification of the immunolabeled neurons was performed via a gray-level method by adjusting a threshold brightness value, and only cells labeled with a gray value above this threshold were taken into account. Reproducibility was assessed by comparing the same data analyzed independently by two researchers blind to the animals' groups. The specific immunolabeling was quantified in each section as the number of labeled neurons, and was automatically computed and evaluated thereafter as the mean (± SEM) for each side, each cat, and each subgroup of cats. To eliminate quantification problems due to potentially asymmetric slides, data were collected from symmetrical slides only, and symmetry was assessed on the basis of the number of cells stained with cresyl violet on each side. […]

[1] = UVN D40, betahistine 2 mg/kg, p < 0.0001

`CNCCc1ccccn1` [Betahistine, betahistine] was tested, and the “Number of HDC immunoreactive neurons, ipsilateral TMN” value (UVN D40, betahistine 0.2 mg/kg without selegiline, UVN untreated 151.78 ± 3.29) was 151.3 ± 1.51, the “Number of HDC immunoreactive neurons, contralateral TMN” value (UVN D40, betahistine 0.2 mg/kg without selegiline, UVN untreated 152.4 ± 3.63) was 151.1 ± 1.63 and the “Number of HDC immunoreactive neurons, contralateral TMN” value [1] was 191.68 ± 2.04. For the same compound, the “Number of HDC immunoreactive neurons, ipsilateral TMN” value [1] was 190.85 ± 1.58 and the “Number of HDC immunopositive neurons on both sides, on average” value (lesion and betahistine 2 mg/kg, 40 days post-lesion, compared to UVN untreated cats as worded) was 210%.
